Experimental data from patent US20040014808A1, “Novel derivatives of carnosic acid” (priority 2002, published 2004).

Experiment: DPPH free-radical scavenging assay
Assay type: biochemical
Details: 300 μM DPPH in methanol, room temperature, 30 min, read at 517 nm, mean of 3 observations; for IC50: read-out: IC50 (μM), concentration of sample required to scavenge 50% DPPH free radicals
Experimental: DPPH Radical Scavenging Assay. The DPPH free radical scavenging assay is based on the abilities of compounds to quench stable DPPH free radicals (Lee, S. K.; Mbwambo, Z. H.; Chung, H. S.; Luyengi, L.; Gamez, E. J. C.; Mehta, R. G.; Kinghorn, A. D.; Pezzuto, J. M. Comb. Chem. High Throughput Screen. 1998, 1, 35-46). Reaction mixtures (200 μL) were prepared by combining multiple concentrations of test sample in methanol (10 μL) with DPPH (Aldrich, Milwaukee, Wis.) in methanol (190 μL). The final DPPH concentration was 300 μM. The reaction mixtures were incubated in 96-well microtiter plates at room temperature for 30 min. After the reaction, reduction of the radical was then measured at 517 nm. Percent inhibition by sample treatment was determined by comparison with controls containing no test samples. IC50 values denote the concentration of sample, required to scavenge 50% DPPH free radicals (Ibid.).

Structure (SMILES)	IC50 (μg/mL), concentration of sample required to scavenge 50% DPPH free radicals [µg/mL]	IC50 [µM]
O=C1O[C@H]([C@@H](O)CO)C(O)=C1O [Ascorbic acid]	11.8	66.8
CC(C)c1cc2c(c(O)c1O)[C@@]1(C(=O)O)CCCC(C)(C)[C@@H]1CC2 [Compound 1, carnosic acid]	18.7	53.3
COc1c(C(C)C)cc2c(c1O)C1(CO)CCCC(C)(C)C1CC2 (centres unmarked) [Compound 4, 11,20-dihydroxy-12-methoxy-abiet-8,11,13-triene]	27.7	83.4
CC(C)c1cc2c(c(O)c1O)[C@@]13CCCC(C)(C)[C@@H]1C[C@@H]2OC3=O [Compound 5, 11,12-dihydroxy-7-10-(epoxymethano)-abiet-8,11,13-triene-20-one]	37.9	114
CC1(C)CCCC23C(=O)OC(CC12)c1cc(C(CO)CO)c(O)c(O)c13 (centres unmarked) [Compound 6, 11,12,16,17-tetrahydroxy-7-10-(epoxymethano)-abiet-8,11,13-triene-20-one]	23.9	66
CCCOC(=O)c1cc(O)c(O)c(O)c1 [Propyl gallate]	9.8	46.1
Oc1cccc(O)c1O [Pyrogallol]	4.8	37.8
